Laboratory results as given in US20080113938A1, “ACCELERATOR FOR MINERAL ABSORPTION AND USE THEREOF” (KABUSHIKI KAISHA HAYASHIBARA SEIBUTSU KAGAKU KENKYUJO, priority 2003, published 2008).
Marks after values point to notes of the source that are not given here.

Experiments:
femur = experiment: Dry weight, ash, calcium, magnesium and phosphorus of the femur of rats; format: in vivo, Wister rats
From the text: Forty of Wister rats weighing 110 to 120 g (five-weeks aged male, commercialized by Charles River Japan Inc., Yokohama, Japan) were bred with a feed containing ingredients (%) shown in Table 1 for one week in order to be familiarized. The familiarized rats were randomly divided into four groups with ten rats each. Each group was experimentally bred for eight weeks with either a feed without cyclic tetrasaccharide shown in Table 1 (hereinafter, it is called as “basic feed”), or another feed of basic feed supplemented with 1%, 2% or 5% on a dry solid basis, of cyclic tetrasaccharide in a crystalline anhydrous powder form with a purity of 99.5%, prepared in the following Example A-3. These basic feed and three kinds of feeds with cyclic tetrasaccharide were prepared to contain 44.75% of the total amount of cyclic tetrasaccharide and corn starch in each feed. From one week before the end of the breeding test, in order to determine the metabolism of calcium, magnesium, iron, sodium, potassium and phosphorus (hereinafter, may be called “minerals” in all), rats in the all groups were fed with the four types of feeds supplemented with 0.5% of chromium oxide as a non-absorbed marker for the minerals. The rats were bred at 25° C. in a manner of freely allowing to take feeds and water under a condition of 12 hours regular interval between of light and shade. After completion of experimental breeding, all rats were individually weighed to calculate the average of weight and further calculate the rate of increased weight for each group.
Two days before the end of the breeding test, rats were placed into a gauge for measuring metabolism to collect their excrement in two days. The resulting excrement was subjected to the measurement of the contents of cyclic tetrasaccharide, each mineral, and chromium. After the breeding test, the rats were anatomized in an anesthetized condition to take out their alimentary canals including jejunum, intestinum ileum, appendix and colon/rectum. After the resulting alimentary canals were weighed, their contents were also weighed and subjected to the measurement of the amount of cyclic tetrasaccharide, minerals and chromium. The rats, which had been taken out their alimentary canals, were dislocated at their cervical vertebrae and taken out their femurs from right legs. The resulting femurs were subjected to the measurement of the amount of ashes, calcium, magnesium and phosphorus. The following(s) explain the methods of quantitative analysis of cyclic tetrasaccharide and the methods of measurement of minerals and chromium.
Two grams of a feed was preciously weighed in a porcelain crucible, heated to carbonize, and heated at 600° C. to incinerate. After weighed, the resulting test samples were admixed with hydrochloric acid in a precious analysis grade (concentration of 20%, commercialized by Wako Pure Chemicals, Co., Ltd., Osaka, Japan) to give a final concentration of 1%. They were subjected to atomic absorption spectrometry (“Zeeman5100™”, commercialized by PerkinElmer); in the case of measurement of chromium, they were subjected to a flameless type one. In the case of measurement of phosphorus, they were subjected to usual molybdenum blue absorptiometry. On the other hand, 0.1 g of each of the contents of jejunum, intestinum ileum, appendix, colon/rectum, and excrement was subjected to wet-type incineration to prepare test samples similarly as in the above case of feed, and the test samples were quantified. The right femurs taken out from the anatomized rats were dried at 105° C. for 15 hours and measured as a dry weight. The resulting dried femurs were precisely weighed in a porcelain crucible, and incinerated similarly as in the case of the feed. The resultants were weighed and quantified for calcium, magnesium and phosphorus.

[1] = test system: reversed canal sac of intestinum ileum; experiment: Calcium absorption in reversed canal sac, intestinum ileum; format: cell-based, Wister rats
Experimental: (§1) Experiment 1 confirmed that cyclic tetrasaccharide promotes mineral absorption in alimentary canal of rat concretely in intestinum ileum or its upper alimentary canal. The following experiment was carried out in order to determine a part of alimentary canal, cyclic tetrasaccharide acts on to promote mineral absorption. Twenty heads of Wister rats (nine week aged male, commercialized by Charlesriver Corporation, Kanagawa, Japan) were bred for three days with a usual solid feed for rats. Under the anesthetization with ether, alimentary canal was taken out from each rat which had been bled from a jugular vein and treated by abdominal operation. Each alimentary canal was divided into jejunum, intestinum ileum and colon/rectum and washed with physiological saline to remove the content. The resulting jejunum specimen, intestinum ileum specimen or colon/rectum specimen was cut off to prepare each midsection sized with about 10 cm in length. The resulting midsection of each specimen was reversed using a glass rod and immersed in a physiological saline babbled with gas consisting of 95% oxygen and 5% carbon dioxide. The resultant was cut into pieces sized with 5 cm in length and each piece was tied with a suture thread at both ends to prepare a reversed canal sac, and injected with about 0.5 ml of an internal sac solution containing 30 mM Tris-HCl buffer (pH7.4), 125 mM sodium chloride, 4 mM potassium chloride, 10 mM glucose and 1.25 mM calcium chloride (dihydrate) with a syringe and weighed. The resulting sac was immersed in an external sac solution (being bubbled with the gas consisting of 95% oxygen and 5% carbon dioxide) containing 50 mM, 100 mM or 200 mM of the same cyclic tetrasaccharide to Experiment 1 in the above solution containing 30 mM Tris-HCl buffer (pH7.4), 125 mM sodium chloride, 4 mM potassium chloride, 10 mM glucose and 1.25 mM calcium chloride (dihydrate). At 15 or 30 minutes after the immersion, the reversed canal sac was taken out from the solution and washed with distilled water. The internal sac solution was collected from the resulting sac and admixed with distilled water to give a final volume of 25 ml. The resulting solution was subjected to a calorimetric measurement of calcium content using “CALCIUM TEST C WAKO™” (commercialized by Wako Pure Chemicals Corporation, Osaka, Japan). As a negative control, an external sac solution without saccharides. As a positive control, an external sac solution containing 200 mM maltitol, reported to have the effect on promoting mineral absorption though intestinal canal, instead of cyclic tetrasaccharide were prepared and carried out in the same manner. Speed of calcium absorption (nmol/min·cm^2) and its relative values defining the value of negative control as 100 were calculated.

[2] = test system: reversed canal sac of colon/rectum; experiment: Calcium absorption in reversed canal sac, colon/rectum; format: cell-based, Wister rats
Experimental: as §1

[3] = test system: reversed canal sac of jejunum; experiment: Calcium absorption in reversed canal sac, jejunum; format: cell-based, Wister rats
Experimental: as §1

[4] = feed supplemented with 1% cyclic tetrasaccharide
[5] = feed supplemented with 2% cyclic tetrasaccharide
[6] = feed supplemented with 5% cyclic tetrasaccharide
[7] = 50 mM saccharide in external sac solution
[8] = 100 mM saccharide in external sac solution
[9] = 200 mM saccharide in external sac solution

Question: Which results are given for `OC[C@H]1O[C@@H]2OC[C@H]3O[C@H](O[C@@H]4[C@@H](O)[C@@H](OC[C@H]5O[C@H](O[C@H]([C@H]2O)[C@@H]1O)[C@H](O)[C@@H](O)[C@@H]5O)O[C@H](CO)[C@H]4O)[C@H](O)[C@@H](O)[C@@H]3O` [cyclic tetrasaccharide, cyclo{>6)-α-D-glucopyranosyl-(1>3)-α-D-glucopyranosyl-(1>6)-α-D-glucopyranosyl-(1>3)-α-D-glucopyranosyl-(1>}]?
Answer: amounts of dried bone weight, ash, calcium, magnesium and phosphorus (femur; comparing with the control, 1%, 2%, 5% feeds): significantly increased; Amount of ash (femur; [4]): 0.64 * g/g dry femur; Amount of calcium in femur (femur; [4]): 217 * ^ mg/g dry femur; Amount of magnesium in femur (femur; [4]): 4.3 * mg/g dry femur; Amount of phosphorus in femur (femur; [4]): 115 * ^ mg/g dry femur; Dry weight of femur (femur; [4]): 0.68 * g; Amount of ash (femur; [5]): 0.65 * g/g dry femur; Amount of calcium in femur (femur; [5]): 225 * ^ mg/g dry femur; Amount of magnesium in femur (femur; [5]): 4.4 * mg/g dry femur; Amount of phosphorus in femur (femur; [5]): 116 * ^ mg/g dry femur; Dry weight of femur (femur; [5]): 0.71 * g; Amount of ash (femur; [6]): 0.66 * g/g dry femur; Amount of calcium in femur (femur; [6]): 240 * ^ mg/g dry femur; Amount of magnesium in femur (femur; [6]): 4.5 * mg/g dry femur; Amount of phosphorus in femur (femur; [6]): 118 * ^ mg/g dry femur; Dry weight of femur (femur; [6]): 0.71 * g; Absorption speed of calcium in alimentary canal sac, Intestinum ileum [1, 7]: 33.6 *※ nmol/min · cm^2; Relative value of calcium absorption speed (control = 100), Intestinum ileum [1, 7]: (124); Absorption speed of calcium in alimentary canal sac, Intestinum ileum [1, 8]: 46.0 *※ nmol/min · cm^2; Relative value of calcium absorption speed (control = 100), Intestinum ileum [1, 8]: (167); Absorption speed of calcium in alimentary canal sac, Intestinum ileum [1, 9]: 52.9 *※ nmol/min · cm^2; Relative value of calcium absorption speed (control = 100), Intestinum ileum [1, 9]: (195); promotion of calcium absorption in intestinum ileum ([1]; reversed sac): strongly promoted; Absorption speed of calcium in alimentary canal sac, Colon/Rectum [2, 7]: 13.5 ※ nmol/min · cm^2; Relative value of calcium absorption speed (control = 100), Colon/Rectum [2, 7]: (101); Absorption speed of calcium in alimentary canal sac, Colon/Rectum [2, 8]: 14.6 *※ nmol/min · cm^2; Relative value of calcium absorption speed (control = 100), Colon/Rectum [2, 8]: (109); Absorption speed of calcium in alimentary canal sac, Colon/Rectum [2, 9]: 15.4 *※ nmol/min · cm^2; Relative value of calcium absorption speed (control = 100), Colon/Rectum [2, 9]: (116); promotion of calcium absorption in colon/rectum ([2]; reversed sac): slightly; Absorption speed of calcium in alimentary canal sac, Jejunum [3, 7]: 26.5 *※ nmol/min · cm^2; Relative value of calcium absorption speed (control = 100), Jejunum [3, 7]: (124); Absorption speed of calcium in alimentary canal sac, Jejunum [3, 8]: 37.6 *※ nmol/min · cm^2; Relative value of calcium absorption speed (control = 100), Jejunum [3, 8]: (176); Absorption speed of calcium in alimentary canal sac, Jejunum [3, 9]: 39.0 *※ nmol/min · cm^2; Relative value of calcium absorption speed (control = 100), Jejunum [3, 9]: (183); promotion of calcium absorption in jejunum ([3]; reversed sac): strongly promoted
